# According to patent US8119563B2, “N-substituted azacycles” (FMC Corporation, priority 2003, dated 2012):
# Test system: tobacco budworm (Heliothis virescens [Fabricius])
# Assay: surface-treated diet test, insecticidal activity against tobacco budworm
# Type: in vivo
# Design: mortality: concentration or dose not given beside the values
# Conditions: 0.25 millimoles of candidate insecticide on the surface of the diet, second instar larvae, five-day exposure; for Percent Mortality / mortality: compared to total number of insects infested; for Percent Growth Inhibition / pest or weed control at 0.25 mmol/well: inhibition of insect weight relative to untreated controls; for mortality / pest or weed control at 0.25 mmol/well: Heliothis virescens, 120 h; for mortality: read-out: Percent Mortality; for pest or weed control at 0.25 mmol/well: read-out: Percent Growth Inhibition
# How it was run: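 Wheat germ artificial diet surface-treated with compound from 50 mM DMSO stock diluted 1:7 in 1:1 water/acetone (0.25 millimolar on diet), or lower-rate dilutions; DMSO-only controls. One second-instar larva per well, 25° C, 60% RH, 14 h light, five days; percent weight inhibition versus untreated and percent mortality scored.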
Structure (SMILES),Percent Mortality,Percent Growth Inhibition,mortality,pest or weed control at 0.25 mmol/well
O=C(Nc1ccc(C[N+]2([O-])CCC(O)(C(c3ccc(OC(F)(F)F)cc3)c3ccc(OC(F)(F)F)cc3)CC2)cc1)OCC1CC1 (stereo not drawn) [Compound 404],100%,100%,–,–
CCON=Cc1ccc(C[N+]2([O-])CCC(O)(C(c3ccc(OC(F)(F)F)cc3)c3ccc(OC(F)(F)F)cc3)CC2)cc1 (stereo not drawn) [Compound 118],100%,100%,–,–
"CCOC(=O)C1(C(Cl)(c2ccc(C(F)(F)F)cc2)c2ccc(C(F)(F)F)cc2)CCN(Cc2ccc(Oc3ccccn3)cc2)CC1 [Compound 195, ethyl 4-{bis[4-(trifluoromethyl)phenyl]chloromethyl}-1-[(4-(2-pyridyloxy)phenyl)methyl]piperidine-4-carboxylate]",–,–,100%,100%
CCS(=O)(=O)[O-].OC1(C(c2ccc(C(F)(F)F)cc2)c2ccc(C(F)(F)F)cc2)CC[N+](O)(Cc2ccc(Oc3ccc(Cl)nn3)cc2)CC1 (stereo not drawn) [Compound 518],100%,100%,–,–
OC1(C(c2ccc(C(F)(F)F)cc2)c2ccc(C(F)(F)F)cc2)CCN(Cc2ccc(OCC3CC3)cc2)CC1 [Compound 299],100%,100%,–,–
"[O-][N+]1(Cc2ccc(Oc3ccccn3)cc2)CCC(O)(C(c2ccc(OC(F)(F)F)cc2)c2ccc(OC(F)(F)F)cc2)CC1 (stereo not drawn) [Compound 117, 4-{bis[4-(trifluoromethoxy)phenyl]methyl}-4-hydroxy-1-[(4-(2-pyridyloxy)phenyl)methyl]piperidin-1-oxide]",–,–,100%,100%
NC(=O)CON=Cc1ccc(C[N+]2(O)CCC(O)(C(c3ccc(OC(F)(F)F)cc3)c3ccc(OC(F)(F)F)cc3)CC2)cc1.O=C(O)CC(O)(CC(=O)O)C(=O)[O-] (stereo not drawn) [Compound 489],100%,100%,–,–
O=C(NC1CCCC1)Oc1ccc(CN2CCC(O)(C(c3ccc(OC(F)(F)F)cc3)c3ccc(OC(F)(F)F)cc3)CC2)cc1 [Compound 320],100%,100%,–,–
CCCCC(CC)C(=O)[O-].OC1(C(c2ccc(OC(F)(F)F)cc2)c2ccc(OC(F)(F)F)cc2)CC[N+](O)(Cc2ccc(Oc3ccc(Cl)nn3)cc2)CC1 (stereo not drawn) [Compound 485],100%,100%,–,–
CCCCCCCCCCCCc1ccc(S(=O)(=O)[O-])cc1.OC1(C(c2ccc(OC(F)(F)F)cc2)c2ccc(OC(F)(F)F)cc2)CC[N+](O)(Cc2ccc(Oc3ccccn3)cc2)CC1 (stereo not drawn) [Compound 515],100%,100%,–,–
CC(=O)NCC1(C(c2ccc(C(F)(F)F)cc2)c2ccc(C(F)(F)F)cc2)CC[N+]([O-])(Cc2ccc(Oc3ncccn3)cc2)CC1 (stereo not drawn) [Compound 466],17%,100%,–,–
OC1(C(c2ccc(OC(F)(F)F)cc2)c2ccc(OC(F)(F)F)cc2)CCN(CCc2ccc(Cl)cc2)CC1 [Compound 474],83%,100%,–,–
CCOC(=O)COc1ccc(CN2CCC(O)(C(c3ccc(C(F)(F)F)cc3)c3ccc(C(F)(F)F)cc3)CC2)cc1 [Compound 291],17%,100%,–,–
[O-][N+]1(Cc2ccc(OCC=C(Cl)Cl)cc2)CCC(O)(C(c2ccc(OC(F)(F)F)cc2)c2ccc(OC(F)(F)F)cc2)CC1 (stereo not drawn) [Compound 371],100%,100%,–,–
Cc1cc(C(c2ccc(OC(F)(F)F)cc2)C2(O)CC[N+]([O-])(Cc3ccc(Oc4ccccn4)cc3)CC2)ccc1Cl (stereo not drawn) [Compound 462],100%,100%,–,–
CCCNC(=O)Oc1ccc(CN2CCC(O)(C(c3ccc(OC(F)(F)F)cc3)c3ccc(OC(F)(F)F)cc3)CC2)cc1 [Compound 300],100%,100%,–,–
FC(F)(F)c1ccc(C(c2ccc(C(F)(F)F)cc2)C2(F)CCN(Cc3ccc(Oc4ccccn4)cc3)CC2)cc1 [Compound 193],100%,100%,–,–
O=C(Nc1ccc(Cl)cc1)Oc1ccc(CN2CCC(O)(C(c3ccc(OC(F)(F)F)cc3)c3ccc(OC(F)(F)F)cc3)CC2)cc1 [Compound 324],33%,100%,–,–
COc1ccc(C(c2ccc(OC(F)(F)F)cc2)C2(O)CCN(Cc3ccc(Oc4ccccn4)cc3)CC2)cc1 (stereo not drawn) [Compound 260],100%,100%,–,–
[O-][N+]1(Cc2ccc(Oc3ccccn3)cc2)CCC(O)(C(c2ccc(F)cc2)c2ccc(OC(F)(F)F)cc2)CC1 (stereo not drawn) [Compound 346],100%,100%,–,–
OC1(C(c2ccc(C(F)(F)F)cc2)c2cc(Cl)cc(Cl)c2)CCN(Cc2ccc(Oc3ncccn3)cc2)CC1 (stereo not drawn) [Compound 3],100%,100%,–,–

Structure (SMILES),Percent Mortality,Percent Growth Inhibition,mortality,pest or weed control at 0.25 mmol/well
[O-][N+]1(Cc2ccc(Oc3ncccn3)cc2)CCC(O)(C(c2ccc(C(F)(F)F)cc2)c2ccc(C(F)(F)F)cc2)CC1 (stereo not drawn) [Compound 120],100%,100%,–,–
OC1(C(c2ccc(OC(F)(F)F)cc2)c2ccc(OC(F)(F)F)cc2)CCN(Cc2ccc(Oc3ccccc3Cl)cc2)CC1 [Compound 297],100%,100%,–,–
CCOC(C)C(=O)[O-].OC1(C(c2ccc(OC(F)(F)F)cc2)c2ccc(OC(F)(F)F)cc2)CC[N+](O)(Cc2ccc(Oc3ccccn3)cc2)CC1 (stereo not drawn) [Compound 503],100%,100%,–,–
Cc1cccc(Oc2ccc(C[N+]3([O-])CCC(O)(C(c4ccc(OC(F)(F)F)cc4)c4ccc(OC(F)(F)F)cc4)CC3)cc2)n1 (stereo not drawn) [Compound 354],100%,100%,–,–
[O-][N+]1(CCc2ccc(Cl)cc2)CCC(O)(C(c2ccc(OC(F)(F)F)cc2)c2ccc(OC(F)(F)F)cc2)CC1 (stereo not drawn) [Compound 479],100%,100%,–,–
CCCCCCCC/C=C/CCCCCCCC(=O)[O-].OC1(C(c2ccc(OC(F)(F)F)cc2)c2ccc(OC(F)(F)F)cc2)CC[N+](O)(Cc2ccc(Oc3ccccn3)cc2)CC1 (stereo not drawn) [Compound 513],100%,100%,–,–
CCn1nnc(-c2ccc(C[N+]3([O-])CCC(O)(C(c4ccc(C(F)(F)F)cc4)c4ccc(C(F)(F)F)cc4)CC3)cc2)n1 (stereo not drawn) [Compound 113],100%,100%,–,–
CCOCON=Cc1ccc(C[N+]2([O-])CCC(O)(C(c3ccc(OC(F)(F)F)cc3)c3ccc(OC(F)(F)F)cc3)CC2)cc1 (stereo not drawn) [Compound 337],100%,100%,–,–
CCCOc1ccc(C[N+]2([O-])CCC(O)(C(O)(c3ccc(C(F)(F)F)cc3)c3ccc(C(F)(F)F)cc3)CC2)cc1 (stereo not drawn) [Compound 121],100%,100%,–,–
OC1(C(c2ccc(OC(F)(F)F)cc2)c2cc(Cl)cc(Cl)c2)CCN(Cc2ccc(Oc3ccccn3)cc2)CC1 (stereo not drawn) [Compound 442],100%,100%,–,–
OC1(C(c2ccc(OC(F)(F)F)cc2)c2cc(Cl)ccc2Cl)CCN(Cc2ccc(Oc3ccccn3)cc2)CC1 (stereo not drawn) [Compound 443],100%,100%,–,–
CC(C)OC(=O)c1ccc(C[N+]2([O-])CCC(O)(C(c3ccc(C(F)(F)F)cc3)c3ccc(C(F)(F)F)cc3)CC2)cc1 (stereo not drawn) [Compound 407],100%,100%,–,–
CCCOC(=O)Nc1ccc(CN2CCC(O)(C(c3ccc(C(F)(F)F)cc3)c3ccc(C(F)(F)F)cc3)CC2)cc1 [Compound 313],100%,100%,–,–
CONC(=O)c1ccc(CN2CCC(O)(C(c3ccc(OC(F)(F)F)cc3)c3ccc(OC(F)(F)F)cc3)CC2)cc1 [Compound 285],100%,100%,–,–
COc1cc(OC)cc(C(c2ccc(C(F)(F)F)cc2)C2(O)CCN(Cc3ccc(Oc4ncccn4)cc3)CC2)c1 (stereo not drawn) [Compound 5],0%,97%,–,–
CCON=Cc1ccc(C(c2ccc(OC(F)(F)F)cc2)C2(O)CCN(Cc3ccc(Oc4ccccn4)cc3)CC2)cc1 (stereo not drawn) [Compound 440],100%,100%,–,–
CCCCC(CC)C(=O)[O-].CCON=Cc1ccc(C[N+]2(O)CCC(O)(C(c3ccc(OC(F)(F)F)cc3)c3ccc(OC(F)(F)F)cc3)CC2)cc1 (stereo not drawn) [Compound 486],100%,100%,–,–
[O-][N+]1(Cc2ccc(Oc3ccccn3)cc2)CCC(O)(C(c2ccc(OC(F)(F)F)cc2)c2cc(Cl)ccc2Cl)CC1 (stereo not drawn) [Compound 460],100%,100%,–,–
O=C(O)CC(O)(CC(=O)O)C(=O)[O-].OC1(C(c2ccc(OC(F)(F)F)cc2)c2ccc(OC(F)(F)F)cc2)CC[N+](O)(Cc2ccc(Oc3ccc(Cl)nn3)cc2)CC1 (stereo not drawn) [Compound 492],100%,100%,–,–
O=C([O-])CCCCC(=O)O.OC1(C(c2ccc(OC(F)(F)F)cc2)c2ccc(OC(F)(F)F)cc2)CC[N+](O)(Cc2ccc(Oc3ccccn3)cc2)CC1 (stereo not drawn) [Compound 516],100%,100%,–,–
[O-][N+]1(Cc2ccc(Oc3ccc(Cl)nn3)cc2)CCC(O)(C(c2ccc(C(F)(F)F)cc2)c2ccc(C(F)(F)F)cc2)CC1 (stereo not drawn) [Compound 384],100%,100%,–,–
